Assay results from paper PMC9297976 (Journal of Applied Toxicology, 2021).

Experiments:
[1] = tested on: Japanese medaka (Oryzias latipes); assay: Fish Short‐Term Reproduction Assay; type: in vivo; settings: for GSI Female / GSI Male / HSI Female / HSI Male / Length Female / Length Male / Weight Female / Weight Male: completion of exposure
[2] = molecular target: T1, medaka Esr1 (mEsr1) (Oryzias latipes, UniProt P50241); assay: cell-based; set-up: species or system Japanese medaka (Oryzias latipes); settings: mode of action in which EC50 or PC10 was obtained in RGA
T1 sequence (P50241 1-620): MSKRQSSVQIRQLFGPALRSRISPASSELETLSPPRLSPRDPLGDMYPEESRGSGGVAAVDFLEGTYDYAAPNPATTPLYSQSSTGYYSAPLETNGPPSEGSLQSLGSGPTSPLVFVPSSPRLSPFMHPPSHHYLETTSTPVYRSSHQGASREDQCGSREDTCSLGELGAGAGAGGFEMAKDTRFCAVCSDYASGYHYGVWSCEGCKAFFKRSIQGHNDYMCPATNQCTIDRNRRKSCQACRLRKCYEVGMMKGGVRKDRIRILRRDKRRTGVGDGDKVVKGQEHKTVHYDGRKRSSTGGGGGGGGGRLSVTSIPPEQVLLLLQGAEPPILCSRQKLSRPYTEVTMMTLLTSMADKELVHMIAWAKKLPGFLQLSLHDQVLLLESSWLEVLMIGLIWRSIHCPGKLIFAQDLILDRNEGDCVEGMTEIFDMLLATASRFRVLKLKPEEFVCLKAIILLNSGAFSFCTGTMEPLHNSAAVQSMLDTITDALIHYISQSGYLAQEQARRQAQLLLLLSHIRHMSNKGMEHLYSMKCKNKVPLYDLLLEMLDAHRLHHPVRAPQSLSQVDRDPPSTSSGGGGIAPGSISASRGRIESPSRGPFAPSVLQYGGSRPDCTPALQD

[3] = molecular target: T2, medaka ARβ (mArβ) (Oryzias latipes, UniProt D1MV73); assay: Medaka ARβ reporter gene assay, antagonist assay; type: cell-based, Japanese medaka (Oryzias latipes)
T2 sequence (D1MV73 1-744): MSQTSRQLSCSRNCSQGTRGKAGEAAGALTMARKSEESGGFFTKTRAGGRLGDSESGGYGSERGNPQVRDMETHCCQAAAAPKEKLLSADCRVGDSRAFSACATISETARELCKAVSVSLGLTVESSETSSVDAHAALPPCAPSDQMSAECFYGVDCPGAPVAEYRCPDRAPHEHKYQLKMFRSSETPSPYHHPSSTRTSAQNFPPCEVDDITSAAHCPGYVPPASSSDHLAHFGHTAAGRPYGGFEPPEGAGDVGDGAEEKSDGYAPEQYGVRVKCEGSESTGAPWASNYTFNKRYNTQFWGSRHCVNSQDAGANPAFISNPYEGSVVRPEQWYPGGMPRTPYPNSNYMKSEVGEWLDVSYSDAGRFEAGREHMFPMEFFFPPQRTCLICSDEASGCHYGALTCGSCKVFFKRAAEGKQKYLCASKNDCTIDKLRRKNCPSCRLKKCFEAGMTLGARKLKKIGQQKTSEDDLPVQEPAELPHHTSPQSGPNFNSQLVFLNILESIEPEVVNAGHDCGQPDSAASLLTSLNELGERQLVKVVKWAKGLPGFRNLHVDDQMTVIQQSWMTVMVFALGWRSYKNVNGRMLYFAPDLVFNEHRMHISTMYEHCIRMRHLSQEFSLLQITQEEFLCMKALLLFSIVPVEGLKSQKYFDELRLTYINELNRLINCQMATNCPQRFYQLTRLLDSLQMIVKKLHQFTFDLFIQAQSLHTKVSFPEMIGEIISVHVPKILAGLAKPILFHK

[4] = molecular target: T2, medaka ARβ (mArβ); assay: Medaka ARβ reporter gene assay, agonist assay; type: cell-based, Japanese medaka (Oryzias latipes); settings: MAC = 1.0 × 10^−4 M
[5] = tested on: Japanese medaka; settings: 12 h after fertilization to 101 days of age; ref Seki, Yokota, Matsubara, et al. (2003); cited from earlier work
[6] = molecular target: T1, medaka Esr1 (mEsr1); assay: Medaka Esr1 reporter gene assay, antagonist assay; type: cell-based, Japanese medaka (Oryzias latipes); settings: E2 spiked at 1.0 nM (B); MAC = 1.0 × 10^−5 M
[7] = 940 μg/L measured, 21 d, sig. ↓ vs control
[8] = measured concentration 58.4 μg/L
[9] = measured concentration 227 μg/L
[10] = measured concentration 940 μg/L

CCC(C)(C)c1ccc(O)cc1 [Chemical 4tPP, 4‐tert‐Pentylphenol]
Fertility rate ([1]; 58.4 μg/L measured, 21 d): 94 ± 1.7%
Hepatic VTG, female ([1]; 58.4 μg/L measured, 21 d): 2,930 ± 737 ng/mg‐liver
Mortality ([1]; 58.4 μg/L measured, 21 d): 4.2%
Mortality, number of dead fish ([1]; 58.4 μg/L measured, 21 d): 1
Number of fertilized eggs (per female per day) ([1]; 58.4 μg/L measured, 21 d): 20 ± 3.2
Number of total eggs (per female per day) ([1]; 58.4 μg/L measured, 21 d): 21 ± 3.1
SSC female (joint plates with papillary processes) ([1]; 58.4 μg/L measured, 21 d): 0 ± 0
Hepatic VTG, male ([1]; 58.4 μg/L measured, 21 d, sig. ↑ vs control): 970 ± 858 ng/mg‐liver
Fertility rate ([1]; 227 μg/L measured, 21 d): 94 ± 2.5%
Hepatic VTG, female ([1]; 227 μg/L measured, 21 d): 3,070 ± 686 ng/mg‐liver
Mortality ([1]; 227 μg/L measured, 21 d): 4.2%
Mortality, number of dead fish ([1]; 227 μg/L measured, 21 d): 1
Number of fertilized eggs (per female per day) ([1]; 227 μg/L measured, 21 d): 19 ± 2.9
Number of total eggs (per female per day) ([1]; 227 μg/L measured, 21 d): 20 ± 2.7
SSC female (joint plates with papillary processes) ([1]; 227 μg/L measured, 21 d): 0 ± 0
Hepatic VTG, male ([1]; 227 μg/L measured, 21 d, sig. ↑ vs control): 3,700 ± 2,300 ng/mg‐liver
Fertility rate ([1]; 940 μg/L measured, 21 d): 81 ± 8.9%
Mortality ([1]; 940 μg/L measured, 21 d): 13%
Mortality, number of dead fish ([1]; 940 μg/L measured, 21 d): 3
SSC female (joint plates with papillary processes) ([1]; 940 μg/L measured, 21 d): 0 ± 0
Hepatic VTG, female ([1]; 940 μg/L measured, 21 d, sig. ↑ vs control): 8,100 ± 3,340 ng/mg‐liver
Number of fertilized eggs (per female per day) [1, 7]: 13 ± 3.5
Number of total eggs (per female per day) [1, 7]: 16 ± 4.7
Change of hepatic VTG levels in females (in words) ([1]; 21 d): significant increase
Fecundity, number of total eggs (in words) ([1]; 21 d): statistically significant decrease
LOEC, elevated hepatic VTG in males ([1]; 21 d): 58.4 µg/L
LOECREPRO ([1]; LOEC on reproduction (fecundity and/or fertility)): 940 µg/L
minimal effective concentration ([1]; Oryzias latipes, 504 h, read-out: LOECmVTG): 0.0584 µg/mL
Fertility rate (in words) ([1]; chemicals with significant decrease of number of total eggs): no significant effect
LOECREPRO (reduction in fecundity or fertility) ([1]; concentrations without overt toxicity): 940 µg/L
LOECTOX ([1]; lowest observed effect concentration on mortality): ND (>940) μg/L
GSI Female [1, 8]: 10.0 ± 0.6%
GSI Male [1, 8]: 0.89 ± 0.11%
HSI Female [1, 8]: 4.3 ± 0.50%
HSI Male [1, 8]: 2.3 ± 0.18%
Length Female [1, 8]: 36.0 ± 0.5 mm
Length Male [1, 8]: 37.8 ± 1.2 mm
Weight Female [1, 8]: 558 ± 48 mg
Weight Male [1, 8]: 590 ± 39 mg
GSI Female [1, 9]: 9.9 ± 1.0%
GSI Male [1, 9]: 0.73 ± 0.16%
HSI Female [1, 9]: 4.2 ± 0.44%
HSI Male [1, 9]: 2.2 ± 0.33%
Length Female [1, 9]: 35.5 ± 0.7 mm
Length Male [1, 9]: 36.2 ± 0.6 mm
Weight Female [1, 9]: 523 ± 48 mg
Weight Male [1, 9]: 546 ± 23 mg
GSI Female [1, 10]: 8.9 ± 1.2%
GSI Male [1, 10]: 0.73 ± 0.13%
HSI Female [1, 10]: 3.9 ± 0.73%
HSI Male [1, 10]: 3.6 ± 0.50%
Length Female [1, 10]: 36.1 ± 1.6 mm
Length Male [1, 10]: 35.6 ± 0.8 mm
Weight Female [1, 10]: 588 ± 130 mg
Weight Male [1, 10]: 509 ± 47 mg
In vitro positive: Esr [2]: Esr
Antagonistic activity IC30 ([3]; 11‐KT spiked at 50 nM (D)): IC30 = 1.7 × 10^−5 M^(D)
In vitro positive: aAr ([3]; mode of action in which IC50 or IC30 was obtained in RGA): aAr
Antagonistic activity on mArβ (in words) ([3]; transcriptional activity on mArβ by 11KT): inhibitory potency
Agonistic activity [4]: NE (MAC = 1.0 × 10^−4 M)
LOEC on abnormal sexual differentiation [5]: 224 µg/L
LOEC on hepatic VTG induction [5]: ≤ 51.1 µg/L
LOEC on reproductive impairment [5]: 224 µg/L
Antagonistic activity [6]: NE (MAC = 1.0 × 10^−5 M)^(B)
